Test results: the supplement of paper PMC10307832

Experiments:
Assay in all cases: relative viability (nuclei count vs DMSO), 5 days (fraction); higher = more cells survive
[1] = compound: OCc1c[nH]c2ccccc12 [Indole-3-carbinol] + C[C@@H](Oc1cc(-c2cnn(C3CCNCC3)c2)cnc1N)c1c(Cl)ccc(F)c1Cl [Crizotinib] (partner 1 µM)
In short: (§1)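 Medians of duplicate plates are given as relative viability. That measure is the nuclei count in treated wells divided by the count in vehicle wells. Counts were taken on 4× images of lung cancer cell lines in 1536-well plates, 5 days after pin-tool dosing the day after seeding with one drug alone or a fixed anchor-drug dose plus five library-drug doses (not always all listed) in √10 steps.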

[2] = compound: OCc1c[nH]c2ccccc12 [Indole-3-carbinol] + CCNC(=O)c1noc(-c2cc(C(C)C)c(O)cc2O)c1-c1ccc(CN2CCOCC2)cc1 [Luminespib] (partner 0.01 µM)
In short: as §1

[3] = compound: OCc1c[nH]c2ccccc12 [Indole-3-carbinol] + O=C(CCCCCCC(=O)Nc1ccccc1)NO [Vorinostat] (partner 1 µM)
In short: as §1

Indole-3-carbinol = compound: OCc1c[nH]c2ccccc12 [Indole-3-carbinol]
In short: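 Five library-drug doses spaced by √10 were pinned onto vehicle-anchored 1536-well plates of lung cancer cell lines that had been kept overnight at 37 °C. Cells went 5 days without medium change, then were fixed, permeabilised and Hoechst-stained together, imaged at 4× and counted by MetaXpress. Viability is the ratio of treated-well to vehicle-well nuclei, taken as a median over plates. Plates required control CV below 25% and at least one doubling.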

[4] = compound: OCc1c[nH]c2ccccc12 [Indole-3-carbinol] + C[C@]1(O)C[C@@H](c2nc(-c3ccc4ccc(-c5ccccc5)nc4c3)c3c(N)nccn32)C1 [Linsitinib] (partner 1 µM)
In short: as §1

Cell Line: ChaGo-K-1
- relative viability ([1]; first compound 0.253 µM): 1.21
- relative viability ([1]; first compound 0.8 µM): 1.04
- relative viability ([1]; first compound 2.53 µM): 1.18
- relative viability ([1]; first compound 8 µM): 1.1
- relative viability ([2]; first compound 0.253 µM): 0.649
- relative viability ([2]; first compound 0.8 µM): 0.658
- relative viability ([2]; first compound 2.53 µM): 0.576
- relative viability ([2]; first compound 8 µM): 0.557
- relative viability ([3]; first compound 0.253 µM): 0.792
- relative viability ([3]; first compound 0.8 µM): 0.729
- relative viability ([3]; first compound 2.53 µM): 0.76
- relative viability ([3]; first compound 8 µM): 0.73
- relative viability (Indole-3-carbinol; 0.253 µM): 0.965
- relative viability (Indole-3-carbinol; 0.8 µM): 0.99
- relative viability (Indole-3-carbinol; 2.53 µM): 0.893
- relative viability (Indole-3-carbinol; 8 µM): 1

Cell Line: EKVX
- relative viability ([1]; first compound 0.253 µM): 1.09
- relative viability ([1]; first compound 0.8 µM): 1.24
- relative viability ([1]; first compound 2.53 µM): 0.648
- relative viability ([1]; first compound 8 µM): 0.864
- relative viability ([4]; first compound 0.253 µM): 1.03
- relative viability ([4]; first compound 0.8 µM): 1.03
- relative viability ([4]; first compound 2.53 µM): 0.973
- relative viability ([4]; first compound 8 µM): 0.976
- relative viability ([2]; first compound 0.253 µM): 0.972
- relative viability ([2]; first compound 0.8 µM): 0.884
- relative viability ([2]; first compound 2.53 µM): 0.908
- relative viability ([2]; first compound 8 µM): 0.848
- relative viability ([3]; first compound 0.253 µM): 0.745
- relative viability ([3]; first compound 0.8 µM): 0.631
- relative viability ([3]; first compound 2.53 µM): 0.942
- relative viability ([3]; first compound 8 µM): 0.697
- relative viability (Indole-3-carbinol; 0.253 µM): 1.04
- relative viability (Indole-3-carbinol; 0.8 µM): 0.96
- relative viability (Indole-3-carbinol; 2.53 µM): 0.999
- relative viability (Indole-3-carbinol; 8 µM): 0.943

Cell Line: EMC-BAC-2
- relative viability ([1]; first compound 0.253 µM): 0.72
- relative viability ([1]; first compound 0.8 µM): 0.785
- relative viability ([1]; first compound 2.53 µM): 0.794
- relative viability ([1]; first compound 8 µM): 0.666
- relative viability ([4]; first compound 0.253 µM): 0.827
- relative viability ([4]; first compound 0.8 µM): 0.823
- relative viability ([4]; first compound 2.53 µM): 0.806
- relative viability ([4]; first compound 8 µM): 0.771
- relative viability ([2]; first compound 0.253 µM): 1.2
- relative viability ([2]; first compound 0.8 µM): 1.23
- relative viability ([2]; first compound 2.53 µM): 1.09
- relative viability ([2]; first compound 8 µM): 1.06
- relative viability ([3]; first compound 0.253 µM): 0.423
- relative viability ([3]; first compound 0.8 µM): 0.444
- relative viability ([3]; first compound 2.53 µM): 0.421
- relative viability ([3]; first compound 8 µM): 0.447
- relative viability (Indole-3-carbinol; 0.253 µM): 0.957
- relative viability (Indole-3-carbinol; 0.8 µM): 0.949
- relative viability (Indole-3-carbinol; 2.53 µM): 1.05
- relative viability (Indole-3-carbinol; 8 µM): 0.912

Cell Line: EPLC-272H
- relative viability ([1]; first compound 0.253 µM): 0.997
- relative viability ([1]; first compound 0.8 µM): 1.14
- relative viability ([1]; first compound 2.53 µM): 0.947
- relative viability ([1]; first compound 8 µM): 1.01
- relative viability ([4]; first compound 0.253 µM): 1.38
- relative viability ([4]; first compound 0.8 µM): 1.28
- relative viability ([4]; first compound 2.53 µM): 1.24
- relative viability ([4]; first compound 8 µM): 1.11
- relative viability ([2]; first compound 0.253 µM): 0.267
- relative viability ([2]; first compound 0.8 µM): 0.23
- relative viability ([2]; first compound 2.53 µM): 0.377
- relative viability ([2]; first compound 8 µM): 0.345
- relative viability ([3]; first compound 0.253 µM): 0.265
- relative viability ([3]; first compound 0.8 µM): 0.534
- relative viability ([3]; first compound 2.53 µM): 0.409
- relative viability ([3]; first compound 8 µM): 0.523
- relative viability (Indole-3-carbinol; 0.253 µM): 1.01
- relative viability (Indole-3-carbinol; 0.8 µM): 1.15
- relative viability (Indole-3-carbinol; 2.53 µM): 0.9
- relative viability (Indole-3-carbinol; 8 µM): 0.906

Cell Line: H3255
- relative viability ([1]; first compound 0.253 µM): 0.865
- relative viability ([1]; first compound 0.8 µM): 0.817
- relative viability ([1]; first compound 2.53 µM): 0.968
- relative viability ([1]; first compound 8 µM): 0.759
- relative viability ([4]; first compound 0.253 µM): 0.916
- relative viability ([4]; first compound 0.8 µM): 0.983
- relative viability ([4]; first compound 2.53 µM): 0.928
- relative viability ([4]; first compound 8 µM): 0.897
- relative viability ([2]; first compound 0.253 µM): 0.875
- relative viability ([2]; first compound 0.8 µM): 0.9
- relative viability ([2]; first compound 2.53 µM): 0.847
- relative viability ([2]; first compound 8 µM): 0.857
- relative viability ([3]; first compound 0.253 µM): 0.753
- relative viability ([3]; first compound 0.8 µM): 0.811
- relative viability ([3]; first compound 2.53 µM): 0.955
- relative viability ([3]; first compound 8 µM): 0.778
- relative viability (Indole-3-carbinol; 0.253 µM): 0.924
- relative viability (Indole-3-carbinol; 0.8 µM): 0.953
- relative viability (Indole-3-carbinol; 2.53 µM): 0.948
- relative viability (Indole-3-carbinol; 8 µM): 0.96

Cell Line: HARA
- relative viability ([1]; first compound 0.253 µM): 1.11
- relative viability ([1]; first compound 0.8 µM): 1.23
- relative viability ([1]; first compound 2.53 µM): 1.06
- relative viability ([1]; first compound 8 µM): 0.987
- relative viability ([4]; first compound 0.253 µM): 0.92
- relative viability ([4]; first compound 0.8 µM): 0.979
- relative viability ([4]; first compound 2.53 µM): 1.06
- relative viability ([4]; first compound 8 µM): 0.978
- relative viability ([2]; first compound 0.253 µM): 0.616
- relative viability ([2]; first compound 0.8 µM): 0.576
- relative viability ([2]; first compound 2.53 µM): 0.675
- relative viability ([2]; first compound 8 µM): 0.55
- relative viability ([3]; first compound 0.253 µM): 0.515
- relative viability ([3]; first compound 0.8 µM): 0.627
- relative viability ([3]; first compound 2.53 µM): 0.505
- relative viability ([3]; first compound 8 µM): 0.511
- relative viability (Indole-3-carbinol; 0.253 µM): 0.96
- relative viability (Indole-3-carbinol; 0.8 µM): 0.894
- relative viability (Indole-3-carbinol; 2.53 µM): 1.06
- relative viability (Indole-3-carbinol; 8 µM): 0.889

Cell Line: HCC-15
- relative viability ([1]; first compound 0.253 µM): 0.79
- relative viability ([1]; first compound 0.8 µM): 0.879
- relative viability ([1]; first compound 2.53 µM): 0.852
- relative viability ([1]; first compound 8 µM): 0.763
- relative viability ([4]; first compound 0.253 µM): 0.845
- relative viability ([4]; first compound 0.8 µM): 1.02
- relative viability ([4]; first compound 2.53 µM): 0.824
- relative viability ([4]; first compound 8 µM): 0.843
- relative viability ([2]; first compound 0.253 µM): 0.529
- relative viability ([2]; first compound 0.8 µM): 0.247
- relative viability ([2]; first compound 2.53 µM): 0.266
- relative viability ([2]; first compound 8 µM): 0.225
- relative viability ([3]; first compound 0.253 µM): 0.909
- relative viability ([3]; first compound 0.8 µM): 0.929
- relative viability ([3]; first compound 2.53 µM): 0.963
- relative viability ([3]; first compound 8 µM): 0.789
- relative viability (Indole-3-carbinol; 0.253 µM): 1.14
- relative viability (Indole-3-carbinol; 0.8 µM): 0.999
- relative viability (Indole-3-carbinol; 2.53 µM): 0.995
- relative viability (Indole-3-carbinol; 8 µM): 0.973

Cell Line: HCC-44
- relative viability ([1]; first compound 0.253 µM): 0.891
- relative viability ([1]; first compound 0.8 µM): 0.946
- relative viability ([1]; first compound 2.53 µM): 0.913
- relative viability ([1]; first compound 8 µM): 0.782
- relative viability ([4]; first compound 0.253 µM): 0.74
- relative viability ([4]; first compound 0.8 µM): 0.705
- relative viability ([4]; first compound 2.53 µM): 0.614
- relative viability ([4]; first compound 8 µM): 0.625
- relative viability ([2]; first compound 0.253 µM): 1.04
- relative viability ([2]; first compound 0.8 µM): 0.812
- relative viability ([2]; first compound 2.53 µM): 1.1
- relative viability ([2]; first compound 8 µM): 0.942
- relative viability ([3]; first compound 0.253 µM): 1.15
- relative viability ([3]; first compound 0.8 µM): 1.16
- relative viability ([3]; first compound 2.53 µM): 1.12
- relative viability ([3]; first compound 8 µM): 1.03
- relative viability (Indole-3-carbinol; 0.253 µM): 0.983
- relative viability (Indole-3-carbinol; 0.8 µM): 0.972
- relative viability (Indole-3-carbinol; 2.53 µM): 0.954
- relative viability (Indole-3-carbinol; 8 µM): 0.96
